Measurements as given in patent US20120070377A1, “COMPOUNDS AND BIOLOGICAL MATERIALS AND USES THEREOF” (priority 2009, published 2012).

Legend:
KB = experiment: In vitro phototoxicity (MTS cell titre assay after 670 nm laser light), Example 5; assay type: cell-based, human; details: Homo sapiens, KB; free photosensitisers; 2 hrs incubation, 670 nm laser 0.5 W 10 s, MTS after 48 h
Protocol: (§1) Two different human-derived tumour cell lines: SKOV3 and KB were obtained from the European Collection of Cell Cultures (ECACC) and cultured in Dulbecco's modified Eagle's medium (DMEM) with 10% foetal bovine serum, penicillin and streptomycin antibiotics (1%) and passaged when 70-90% confluent in 75 cm^2 flasks. The cells were maintained at 37° C. in a humidified 5% CO2 atmosphere.
(§2) Cells were trypsinised and seeded at 2×10^3 cells/well for KB and 3×10^3 cells/well for SKOV3 into 96-well plates and incubated over two nights for KB and overnight for SKOV3 at 37° C. and 5% CO2. The cells were then washed once in phenol red free DMEM and appropriately diluted photosensitiser solution or photo-immunoconjugate (in DMEM, 2% DMSO) was added to the appropriate wells under subdued lighting. DMEM or Triton X-100 (1%) were added to control wells. After 2 hrs incubation in the dark at 37° C., 5% CO2, cells were washed three times with PBS and 100 μl of DMEM was added to each well.
(§3) Wells were exposed to light from a High Powered-Devices 670 nm laser used at 0.5 W for 10 s. Controls included wells with photosensitiser added and no exposure to light, or DMEM added and exposure to light as well as Triton X-100 (1%) with or without light exposure. Cells that had no photosensitiser added and no exposure to light were included as overall controls. Cells were incubated in the dark at 37° C., 5% CO2 for 48 h after which time, a cell titre assay was performed according to the manufacturer's instructions. The Promega Cell Titre-96 system was used which involves the conversion by live cells of a tetrazolium compound (MTS) into a formazan dye which is measurable by its absorbance at 490 nm.

SKOV3 = experiment: as above; assay type: cell-based, human; details: Homo sapiens, SK-OV-3; free photosensitisers; 2 hrs incubation, 670 nm laser 0.5 W 10 s, MTS after 48 h
Protocol: as §1, §2, §3

SKOV3 tumours = experiment: PDT therapy in SKOV3 tumour mice; assay type: in vivo, BALB/c nude mice
Protocol: Female BALB/c nude mice (aged 6-8 weeks old) were implanted with 10^7 SKOV3 tumour cells mixed in 0.1 ml of ice-cold matrigel subcutaneously and the tumours were allowed to grow for 3-6 weeks as xenografts. Mice were maintained in IVC cages (individually-vented cages) in a clean room. Samples were injected in a volume of 0.1 ml, intravenously via the lateral tail vein and the mice were maintained in low light with full food and water (irradiated). At various time points (1-24 hr), mice were culled by cardiac puncture under terminal anesthesia and blood and tissues collected. All the tissues were counted for radioactivity by gamma counting and weighed.
Tumours were set up as described above and injected (iv into the mouse tail vein) with 0.2 ml of free PPa-PEG1 (0.1 mg=33 micromolar concentration) PS on day 1 and day 4. Based on the tumour uptake (see FIG. 10), an HPD laser was used to illuminate the tumours for 20 minutes at 0.5 W after 4 hrs. The mice were anaesthetized beforehand. Laser treatment followed each drug cycle. The tumours were followed for 3 weeks and the % increase in tumour size was plotted (day 0=100%) (see FIG. 12).
Tumours (groups of 6 mice) were set up as described above and injected (iv into the mouse tail vein) with 0.2 ml of C6-PPa-PEG PIC or free PPa-PEG1 PS (1 mg/ml PIC=33 micomolar concentration scFv or 330 micromolar PPa-PEG) on day 1 and day 4. […]

[1] = Skin photosensitivity in a murine model; assay type: in vivo; details: laser on the skin after 1 hour, monitored over 4 days, scale of 1-4
Protocol: FIG. 24: Skin photosensitivity of Foscan compared to compound II. Photosensitisers were administered at t=0 hrs and a laser shone on the skin after 1 hour. The skin reaction was followed over time and the results were plotted according to the scale shown.
Skin photosensitivity is an important issue to be resolved in PDT. […] In a murine model, Foscan was administered at clinical doses (ref 109) and compared to compound 11 and a photo-immunoconjugate of compound 11. Skin photosensitivity was monitored over 4 days by observation according to a scale of 1-4 (FIG. 24).

skin photosensitivity [1]: little or no skin sensitivity
SMILES: CCC1=C(C)c2cc3[nH]c(c(C)c3CC)c(C#CCCCC(=O)ON3C(=O)CCC3=O)c3nc(c4c5[nH]c(cc1n2)c(C)c5C(=O)C4)[C@@H](CCC(=O)OCc1cc(OCCOCCOCCOC)c(OCCOCCOCCOC)c(OCCOCCOCCOC)c1)[C@@H]3C [compound 11, Meso 5-Ethynylhexanoyl succinimido ester pyropheophorbide a-3,4,5-(triethylene glycolmonomethylether) benzyl ester]
IC50 (KB): 1.2 ± 0.5 µM
IC50 (SKOV3): 1.1 µM
tumour regression compared to untreated (Saline) controls (SKOV3 tumours; C6 PPa-PEG therapy: 0.2 ml iv day 1 and day 4, 1 mg/ml PIC or 0.5 mg/ml free PS, laser 20 minutes 0.5 W after 4 hrs, followed 6 weeks): no significant tumour regression
tumour regression compared to untreated (Saline) controls (SKOV3 tumours; PPa-PEG only therapy: 0.2 ml iv (0.1 mg) day 1 and day 4, laser 20 minutes 0.5 W after 4 hrs, followed 3 weeks): no significant tumour regression
